Series [1] has as its system Klebsiella pneumoniae. The experiment in a line: Inhibition of Klebsiella pneumoniae KP1009 CTX-M-15 assessed as minimum concentration of compound required to reduce the MIC of aztreonam to 4 ug/ml.
Series [2] has as its system Escherichia coli. The experiment in a line: Inhibition of Escherichia coli KP308 SHV-5 assessed as minimum concentration of compound required to reduce the MIC of aztreonam to 4 ug/ml.
The subject of series [3] is Escherichia coli. Kind of series: Inhibition of Escherichia coli EC302 TEM-10 assessed as minimum concentration of compound needed to reduce the MIC of aztreonam to 4 ug/ml.
For series [4], the target named is Beta-lactamase (Klebsiella pneumoniae) (UniProt Q93LQ9). Kind of series: Inhibition of Klebsiella pneumoniae KP1004 KPC-2 assessed as minimum concentration of compound needed to reduce the MIC of aztreonam to 4 ug/ml.
Sequence of Beta-lactamase (Klebsiella pneumoniae) (Q93LQ9 as listed by the source): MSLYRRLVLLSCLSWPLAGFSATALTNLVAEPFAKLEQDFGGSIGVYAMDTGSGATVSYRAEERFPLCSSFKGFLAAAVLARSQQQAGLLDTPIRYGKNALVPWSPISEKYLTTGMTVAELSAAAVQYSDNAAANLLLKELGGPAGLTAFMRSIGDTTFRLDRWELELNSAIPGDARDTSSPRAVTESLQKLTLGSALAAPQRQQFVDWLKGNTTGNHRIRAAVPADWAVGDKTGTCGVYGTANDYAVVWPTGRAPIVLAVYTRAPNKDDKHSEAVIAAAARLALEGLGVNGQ
The test system of the next series is Enterobacter cloacae. Kind of series: Inhibition of Enterobacter cloacae ECL1002 AmpC assessed as minimum concentration of compound needed to reduce the MIC of aztreonam to 4 ug/ml.
For series [5], the system named is Klebsiella pneumoniae. Kind of series: Inhibition of Klebsiella pneumoniae KP1081 NDM-1 assessed as minimum concentration of compound required to reduce the MIC of biapenem to 1 ug/ml.
The test system of series [6] is Klebsiella pneumoniae. Kind of series: Inhibition of Klebsiella pneumoniae KP1054 VIM-1 assessed as minimum concentration of compound required to reduce the MIC of biapenem to 1 ug/ml.
The test system of a further series is Pseudomonas aeruginosa. Kind of series: Inhibition of Pseudomonas aeruginosa PAM 2035 AmpC assessed as minimum concentration of compound needed to reduce the MIC of aztreonam to 4 ug/ml.
In series [7] the test system is Klebsiella pneumoniae. The experiment in a line: Inhibition of Klebsiella pneumoniae KP1160 IMP-26 assessed as minimum concentration of compound needed to reduce the MIC of meropenem to 1 ug/ml.
Series [8] has as its system Escherichia coli. The experiment in a line: Inhibition of Escherichia coli ECM6625 SHV-5 assessed as minimum concentration of compound needed to reduce the MIC of aztreonam to 4 ug/ml.
The test system of series [9] is Escherichia coli. The experiment in a line: Inhibition of Escherichia coli ECM6619 TEM-10 assessed as minimum concentration of compound needed to reduce the MIC of aztreonam to 4 ug/ml.
The test system of the next series is Acinetobacter baumannii. The experiment in a line: Inhibition of Acinetobacter baumannii AB1053 OXA-72 assessed as minimum concentration of compound needed to reduce the MIC of meropenem to 8 ug/ml.
Series [10] deals with Beta-lactamase OXA-23 (Acinetobacter baumannii) (UniProt Q9L4P2). Kind of series: Inhibition of Acinetobacter baumannii AB1054 OXA-23 assessed as minimum concentration of compound needed to reduce the MIC of meropenem to 8 ug/ml.
Sequence of Beta-lactamase OXA-23 (Acinetobacter baumannii) (Q9L4P2 whole entry): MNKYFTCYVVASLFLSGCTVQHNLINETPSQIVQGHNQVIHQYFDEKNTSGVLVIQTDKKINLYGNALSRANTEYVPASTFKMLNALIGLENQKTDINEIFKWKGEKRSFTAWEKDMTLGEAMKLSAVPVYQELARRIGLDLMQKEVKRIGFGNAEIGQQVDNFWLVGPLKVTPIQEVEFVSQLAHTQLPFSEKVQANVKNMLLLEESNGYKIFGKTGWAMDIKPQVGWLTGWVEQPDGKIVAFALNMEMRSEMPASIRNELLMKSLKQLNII
Series [11] is described as follows: Protein binding in human plasma. It is filed as ADME, cell-free. The settings on record: read-out: PPB (converted).
The target of series [12] is Class A carbapenemase KPC-2 (Escherichia coli, UniProt A8DS27). The experiment in a line: Inhibition of recombinant Escherichia coli KPC-2 using nitrocefin as substrate preincubated for 10 mins followed by substrate addition and measured every 10 secs for 10 mins by spectrophotometric analysis.
Sequence of Class A carbapenemase KPC-2 (A8DS27 whole entry): as the sequence (Q93LQ9 as listed by the source) above
A short description of series [13]: Inhibition of recombinant Escherichia coli NDM-1 using imipenem as substrate preincubated for 10 mins followed by substrate addition and measured every 30 secs for 30 mins by spectrophotometric analysis.
Series [14] is described as follows: Inhibition of recombinant Escherichia coli CTX-M-14 using nitrocefin as substrate preincubated for 10 mins followed by substrate addition measured every 10 secs for 10 mins by spectrophotometrically analysis.
A short description of series [15]: Inhibition of recombinant Escherichia coli SHV-12 using nitrocefin as substrate preincubated for 10 mins followed by substrate addition measured every 10 secs for 10 mins by spectrophotometrically analysis.
A short description of series [16]: Inhibition of recombinant Escherichia coli AmpC using nitrocefin as substrate preincubated for 10 mins followed by substrate addition measured every 10 secs for 10 mins by spectrophotometrically analysis.
A short description of series [17]: Inhibition of […] OXA-48 using nitrocefin as substrate preincubated for 10 mins followed by substrate addition measured every 10 secs for 10 mins by spectrophotometrically analysis.
For a further series, the target named is Beta-lactamase OXA-23 (Acinetobacter baumannii, UniProt Q9L4P2). Kind of series: Inhibition of Acinetobacter baumannii OXA-23 using nitrocefin as substrate preincubated for 10 mins followed by substrate addition measured every 10 secs for 10 mins by spectrophotometrically analysis.
Sequence of Beta-lactamase OXA-23 (Q9L4P2 whole entry): as the sequence (Q9L4P2 whole entry) above
In another series the target is BlaVIM-1 (Escherichia coli, UniProt Q8GDC1). The experiment in a line: Inhibition of recombinant Escherichia coli VIM-1 using nitrocefin as substrate preincubated for 10 mins followed by substrate addition measured every 10 secs for 10 mins by spectrophotometrically analysis.
Series [18] in a line: Inhibition of recombinant Escherichia coli IMP-1 using imipenem as substrate preincubated for 10 mins followed by substrate addition measured every 30 secs for 30 mins by spectrophotometrically analysis.
A short description of series [19]: Drug level in dog treated with disodium salt of 8-carboxylato-2,2-dihydroxy-7-methoxy-3,4-dihydro-2Hbenzo[e][1,2]oxaborinin-2-uide assessed as compound formation. The class given is ADME, Canis lupus familiaris. The settings on record: in vivo.
Series [20] is described as follows: Drug level in monkey treated with disodium salt of 8-carboxylato-2,2-dihydroxy-7-methoxy-3,4-dihydro-2Hbenzo[e][1,2]oxaborinin-2-uide assessed as compound formation. It is filed as ADME, Macaca mulatta. The settings on record: rhesus monkey, in vivo.
Series [21] is described as follows: Oral bioavailability in rat. It is filed as ADME, organism-based. The settings on record: in vivo.
The nature of series [22]: Drug metabolism in dog assessed as oxidative-deboronation by measuring 2-hydroxy-3-(2-hydroxyethyl)-6-methoxy-benzoic acid formation. The class given is ADME, Canis lupus familiaris.
Series [23] is described as follows: Drug metabolism in monkey assessed as oxidative-deboronation by measuring 2-hydroxy-3-(2-hydroxyethyl)-6-methoxy-benzoic acid formation. The class given is ADME, Macaca mulatta. The settings on record: rhesus monkey.

Each structure is given as a SMILES string.

For the compound `COc1ccc2c(c1C(=O)O)OB(O)[C@@H]1C[C@H]21`, the MEC stood at 0.3 µg/mL in the series with Klebsiella pneumoniae [1]; 0.08 µg/mL with Escherichia coli [2]; 0.08 µg/mL in the series on Escherichia coli [3]; 0.16 µg/mL in [4]; 0.3 µg/mL with Enterobacter cloacae; 0.3 µg/mL with Klebsiella pneumoniae [5]. Also, the MEC with Klebsiella pneumoniae [6] amounted to 0.04 µg/mL; with Pseudomonas aeruginosa, 2.5 µg/mL; in the series with Klebsiella pneumoniae [7], 5 µg/mL; in the series with Escherichia coli [8] it was 0.08 µg/mL; with Escherichia coli [9], 0.08 µg/mL; in the series with Acinetobacter baumannii it was 0.6 µg/mL. In addition, the MEC in series [10] is 1.25 µg/mL. In addition, the fraction unbound in series [11] was 0.11.
In the case of `O=C(O)C[C@@H]1CC[C@H](NC(=O)Cc2cccs2)B(O)O1` [VABORBACTAM], the Ki in series [12] was 56 nM; in series [13] it was over 40000 nM; in series [14], 33 nM; in series [15] it was 21 nM; in [16], 35 nM; in [17] it was 14000 nM. Besides, the Ki (on Beta-lactamase OXA-23; at BlaVIM-1; in [18]) was over 40000 nM throughout.
Consider `COc1ccc(CCO)c(O)c1C(=O)O`, for which the Drug uptake result in [19] and in series [20] was “Active” throughout.
As to `COc1ccc2c(c1C(=O)O)OB(O)CC2`, the MEC in the series with Klebsiella pneumoniae [1] worked out at 0.6 µg/mL; in [4], 0.16 µg/mL; in the series with Enterobacter cloacae, 0.3 µg/mL; in the series on Klebsiella pneumoniae [5], 0.6 µg/mL; in the series on Klebsiella pneumoniae [6] it was 0.6 µg/mL; in the series with Pseudomonas aeruginosa, 1.25 µg/mL. Also, the MEC with Klebsiella pneumoniae [7] was over 20 µg/mL; in the series on Escherichia coli [8], 0.6 µg/mL; with Escherichia coli [9] it was 0.08 µg/mL; with Acinetobacter baumannii, 0.6 µg/mL; in [10], 0.6 µg/mL. The compound further came in with a bioavailability in [21] of 50%. The Drug metabolism result in series [22] and in series [23] was “Metabolite_Detected” throughout.

(Values after ChEMBL document CHEMBL4616632, “Discovery of Cyclic Boronic Acid QPX7728, an Ultrabroad-Spectrum Inhibitor of Serine and Metallo-β-lactamases” (J Med Chem, 2020).)
